Article PMC3066540, “Molecular characterization of O-methyltransferases involved in isoquinoline alkaloid biosynthesis in Coptis japonica” (Proceedings of the Japan Academy. Series B, Physical and …, 2010)

What was measured:
64′-OMT [1] = tested on: T1, 64′-OMT; assay: [3H]methyl transfer assay, double-reciprocal plots with secondary replots; type: biochemical, Coptis japonica; conditions: 30 °C
T1 construct: gene 6-OMT; pET-21d, no vector-derived peptides, E. coli BL21(DE3), purified; subunit ca. 40 kDa, native ca. 63 kDa, dimer

6-OMT = molecular target: T2, 6-OMT (Coptis japonica, UniProt Q9LEL6); assay: LC/MS product analysis; type: biochemical; conditions: 1 mM acceptor, 1 mM AdoMet, pH 7.5, 30 °C; presumed 3'-O-methylation; crude E. coli lysate
T2 construct: full length, recombinant in E. coli, crude lysate; dimer

64′-OMT [2] = molecular target: T1, 64′-OMT; assay: [3H]methyl transfer assay, inhibition kinetics; type: biochemical, Coptis japonica; conditions: competitive with AdoMet; varied substrate AdoMet, methyl acceptor norlaudanosoline; 30 °C

T2 sequence (Q9LEL6 whole entry): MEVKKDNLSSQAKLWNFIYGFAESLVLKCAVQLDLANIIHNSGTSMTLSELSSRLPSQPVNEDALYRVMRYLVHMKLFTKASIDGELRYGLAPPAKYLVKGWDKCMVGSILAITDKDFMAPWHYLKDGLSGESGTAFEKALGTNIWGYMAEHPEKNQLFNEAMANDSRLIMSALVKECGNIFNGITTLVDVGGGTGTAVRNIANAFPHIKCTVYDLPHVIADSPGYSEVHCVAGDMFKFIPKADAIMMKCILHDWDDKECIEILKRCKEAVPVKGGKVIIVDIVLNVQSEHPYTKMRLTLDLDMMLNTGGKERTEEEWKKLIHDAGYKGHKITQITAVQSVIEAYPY

SMILES: Oc1ccc(CC2NCCc3cc(O)c(O)cc32)cc1O (racemic) [(R,S)-norlaudanosoline]
- Km (64′-OMT [1]; co-substrate [3H]AdoMet varied): 109 µM

SMILES: COc1cc2c(cc1O)[C@H](Cc1ccc(O)c(O)c1)N(C)CC2 [3′-hydroxy-N-methylcoclaurine]
- LC/MS product analysis (6-OMT): 6-OMT showed a weak but evident peak that was distinct

SMILES: Nc1ncnc2c1ncn2[C@@H]1O[C@H](CSCC[C@H](N)C(=O)O)[C@@H](O)[C@H]1O [AdoHcy]
- Ki (64′-OMT [2]): 70 µM

SMILES: C[S+](CC[C@H](N)C(=O)O)C[C@H]1O[C@@H](n2cnc3c(N)ncnc32)[C@H](O)[C@@H]1O (stereo partly shown) [AdoMet]
- Km (64′-OMT [1]; co-substrate (R,S)-norlaudanosoline varied, labelled compound): 187 µM
